Experimental data from the supplement of paper PMC6045584.
± gives the standard deviation of the averaged measurements.

Assays:
CAMPTOTHECIN [1] = compound: T1, CC[C@@]1(O)C(=O)OCc2c1cc1n(c2=O)Cc2cc3ccccc3nc2-1 [CAMPTOTHECIN]; test: area under dose-response curve of surviving fraction (unscaled, Aref=0) (surviving fraction x log10(nM)); higher = more resistant; details: exposure time: 5 days; dose range 0.5-1000 nM
How it was run: (§1)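 Each tumour cell line was screened three times in 384-well plates, receiving eight inhibitor concentrations from 0.5 to 1000 nM for five days. CellTiter-Glo luminescence gave viability, normalised to DMSO-only wells. Using the drc R package, surviving fractions were fitted with 3-parameter logistic dose-response curves, and the unscaled activity area over log10 dose (Aref = 0) was taken as the area under the curve.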

CARBOPLATIN [2] = compound: T2, O=C(O)C1(C(=O)O)CCC1.[NH2-].[NH2-].[Pt+2] [CARBOPLATIN]; test: as above; details: exposure time: 5 days; dose range 0.5-1000 nM
How it was run: as §1

GEFITINIB [3] = compound: T3, COc1cc2ncnc(Nc3ccc(F)c(Cl)c3)c2cc1OCCCN1CCOCC1 [GEFITINIB]; test: as above; details: exposure time: 5 days; dose range 0.5-1000 nM
How it was run: as §1

[4] = compound: CC(=O)c1c(C)c2cnc(Nc3ccc(N4CCNCC4)cn3)nc2n(C2CCCC2)c1=O; test: as above; details: exposure time: 5 days; dose range 0.5-1000 nM
How it was run: as §1

YM155 = compound: COCC[n+]1c2c(n(Cc3cnccn3)c1C)C(=O)c1ccccc1C2=O [YM155]; test: as above; details: exposure time: 5 days; dose range 0.5-1000 nM
How it was run: as §1

CELECOXIB = compound: Cc1ccc(-c2cc(C(F)(F)F)nn2-c2ccc(S(N)(=O)=O)cc2)cc1 [CELECOXIB]; test: as above; details: exposure time: 5 days; dose range 0.5-1000 nM
How it was run: as §1

[5] = compound: CC(=O)NCC(=O)N1[C@@H]2CC[C@H]1c1ccc(Nc3ncc(C(F)(F)F)c(NC4CCC4)n3)cc12; test: as above; details: exposure time: 5 days; dose range 0.5-1000 nM
How it was run: as §1

PACLITAXEL = compound: CC(=O)O[C@H]1C(=O)[C@@]2(C)[C@H]([C@H](OC(=O)c3ccccc3)[C@]3(O)C[C@H](OC(=O)[C@H](O)[C@@H](NC(=O)c4ccccc4)c4ccccc4)C(C)=C1C3(C)C)[C@]1(OC(C)=O)CO[C@@H]1C[C@@H]2O [PACLITAXEL]; test: as above; details: exposure time: 5 days; dose range 0.5-1000 nM
How it was run: as §1

OSI-906 = compound: C[C@]1(O)C[C@@H](c2nc(-c3ccc4ccc(-c5ccccc5)nc4c3)c3c(N)nccn32)C1 [OSI-906]; test: as above; details: exposure time: 5 days; dose range 0.5-1000 nM
How it was run: as §1

CAMPTOTHECIN [6] = compound: T1, CAMPTOTHECIN; test: surviving fraction relative to DMSO-only wells; higher = less growth inhibition; details: exposure time: 5 days
How it was run: (§2)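 Inhibitors were tested at 0.5, 1, 5, 10, 50, 100, 500 and 1000 nM, applied continuously for five days beginning 24 hours after log-phase tumour cells were seeded at 250–500 per well in 384-well plates. CellTiter-Glo luminescence served as the viability measure, expressed as surviving fraction against the median of DMSO-only wells. Each line, screened three times, was kept only with replicate Pearson r >0.7 and median Z' >0.3.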

CARBOPLATIN [7] = compound: T2, CARBOPLATIN; test: as above; details: exposure time: 5 days
How it was run: as §2

GEFITINIB [8] = compound: T3, GEFITINIB; test: as above; details: exposure time: 5 days
How it was run: as §2

[9] = compound: CC(=O)c1c(C)c2cnc(Nc3ccc(N4CCNCC4)cn3)nc2n(C2CCCC2)c1=O; test: as above; details: exposure time: 5 days
How it was run: as §2

CAL72 BONE
area under dose-response curve (CAMPTOTHECIN [1]): 1.67
area under dose-response curve (CARBOPLATIN [2]): 3.49
area under dose-response curve (GEFITINIB [3]): 3.5
area under dose-response curve [4]: 3.69
area under dose-response curve (YM155): 1.02
area under dose-response curve (CELECOXIB): 3.49
area under dose-response curve [5]: 2.9
area under dose-response curve (PACLITAXEL): 0.96
area under dose-response curve (OSI-906): 3.22
surviving fraction (CAMPTOTHECIN [6]; 0.5 nM): 0.985 ± 0.029
surviving fraction (CAMPTOTHECIN [6]; 1 nM): 0.991 ± 0.021
surviving fraction (CAMPTOTHECIN [6]; 5 nM): 0.955 ± 0.034
surviving fraction (CAMPTOTHECIN [6]; 10 nM): 0.762 ± 0.12
surviving fraction (CAMPTOTHECIN [6]; 50 nM): 0.18 ± 0.022
surviving fraction (CAMPTOTHECIN [6]; 100 nM): 0.118 ± 0.011
surviving fraction (CAMPTOTHECIN [6]; 500 nM): 0.0517 ± 0.0015
surviving fraction (CAMPTOTHECIN [6]; 1000 nM): 0.0597 ± 0.0011
surviving fraction (CARBOPLATIN [7]; 0.5 nM): 1.05 ± 0.081
surviving fraction (CARBOPLATIN [7]; 1 nM): 1.03 ± 0.094
surviving fraction (CARBOPLATIN [7]; 5 nM): 1.06 ± 0.035
surviving fraction (CARBOPLATIN [7]; 10 nM): 1.06 ± 0.052
surviving fraction (CARBOPLATIN [7]; 50 nM): 1.12 ± 0.084
surviving fraction (CARBOPLATIN [7]; 100 nM): 1.03 ± 0.23
surviving fraction (CARBOPLATIN [7]; 500 nM): 1.1 ± 0.11
surviving fraction (CARBOPLATIN [7]; 1000 nM): 1.01 ± 0.15
surviving fraction (GEFITINIB [8]; 0.5 nM): 1.01 ± 0.11
surviving fraction (GEFITINIB [8]; 1 nM): 1.02 ± 0.088
surviving fraction (GEFITINIB [8]; 5 nM): 1.05 ± 0.099
surviving fraction (GEFITINIB [8]; 10 nM): 1.02 ± 0.082
surviving fraction (GEFITINIB [8]; 50 nM): 1.11 ± 0.054
surviving fraction (GEFITINIB [8]; 100 nM): 1.13 ± 0.098
surviving fraction (GEFITINIB [8]; 500 nM): 1.07 ± 0.074
surviving fraction (GEFITINIB [8]; 1000 nM): 1.05 ± 0.11
surviving fraction ([9]; 0.5 nM): 1.1 ± 0.066
surviving fraction ([9]; 1 nM): 1.12 ± 0.061
surviving fraction ([9]; 5 nM): 1.12 ± 0.025
surviving fraction ([9]; 10 nM): 1.13 ± 0.05
surviving fraction ([9]; 50 nM): 1.13 ± 0.037
surviving fraction ([9]; 100 nM): 1.14 ± 0.022
surviving fraction ([9]; 500 nM): 1.14 ± 0.078
